Experimental data published in patent publication US4659696A, “Pharmaceutical composition and its nasal or vaginal use” (Takeda Chemical Industries, Ltd., priority 1982, dated 1987).
Where two headings read alike, the source gives them in different places.

Tests used:
[1] = Saturation solubility of cyclodextrin; format: physicochemical; details: isotonic buffer solution (pH 7.4)
[2] = system: prothrombin time (blood coagulation time); assay: Prothrombin time (blood coagulation time) after rectal heparin sodium in rats; format: in vivo, rat; details: heparin sodium 600 U
Description: A 0.27 ml portion of each blood sample is placed in a polyethylene microtube containing 0.03 ml of 3.8 w/v percent of sodium citrate, the tube contents are stirred well and then centrifuged, and the plasma portion is subjected to prothrombin time (blood coagulation time) determination using a thromboplastin reagent (Simplastin, Ono Pharmaceutical Co., Japan). In the control group, the same procedure is followed with α-cyclodextrin-free heparin sodium. […] An increased absorption of heparin is thus shown.

in vivo = details: female, SD, rat, 100 ug/kg, Concentration of TAP-144 in serum
Description: (§1) SD-strain mature female rats (weighing about 270 g, 14 to 18 weeks old, in groups of 4 to 5 individuals) at diestrus as selected by the vaginal smear test covering a period of at least one week are anesthetized with pentobarbital and phenobarbital at 8-11 a.m., and a solution prepared by dissolving 500 μg of TAP-144 and 20 mg (2%), 50 mg (5%) or 100 mg (10%) of α-cyclodextrin in physiological saline in an amount to make 1 ml is administered into the vagina with about 12 mg of cotton soaked therewith at the dose level of 0.2 ml/kg (corresponding 100 μg/kg of TAP-144). Blood samples are taken from the tail vein at timed intervals and assayed for the serum TAP-144 level by radioimmunoassay [refer to Endocrinologia Japonica, vol.

[3] = rat, in vivo
Description: Male SD strain rats (body weights 250 g, approx.) fasted for 16 hours are used in groups of at least 3 animals. Each animal is anesthetized with pentobarbital and administered nasal medication in accordance with the method described in International Journal of Pharmaceutics 7, 317 (1981). Then, 0.1 ml/kg of insulin solution is directly administered into the nasal cavity with a micropipette via the nostril.
In 0.1 ml of physiological saline are dissolved 100 μg of TAP-144 and 5 mg of α-cyclodextrin, and in the manner of Experimental Example 1, the 0.1 ml/kg equivalent of the solution is administered into the nasal cavity (the dose of TAP-144: […]).

[4] = rat, in vivo; remark: listed apart in the source
Description: as §1

[5] = rats, rectal Witepsol W-35 suppository, sodium cefazolin 50 mg/kg
Description: Thereafter, blood sampling from the tail vein is performed at timed intervals and the plasma cefazolin level is determined by bioassay using Bacillus subtilis PCI-219 as the test organism.

[6] = rats, rectal suspension, 5-FU 50 mg/kg
Description: An amount (corresponding to 50 mg/kg) of 5-FU and 5 mg of α-cyclodextrin are finely milled in a mortar and added to 0.1 ml of physiological saline. The mixture is subjected to ultrasonic treatment (27 KHz, 5 minutes). The thus-obtained suspension is rectally administered to rats in the manner in Experimental Example 7. Blood samples are taken from the tail vein at timed intervals and 5-FU plasma levels are determined by bioassay using Micrococcus luteus ATCC-10240 as the test organism. In the control group, the procedure is followed with α-cyclodextrin-free 5-FU.

In the case of OC[C@H]1O[C@@H]2O[C@H]3[C@H](O)[C@@H](O)[C@@H](O[C@H]4[C@H](O)[C@@H](O)[C@@H](O[C@H]5[C@H](O)[C@@H](O)[C@@H](O[C@H]6[C@H](O)[C@@H](O)[C@@H](O[C@H]7[C@H](O)[C@@H](O)[C@@H](O[C@H]8[C@H](O)[C@@H](O)[C@@H](O[C@H]1[C@H](O)[C@H]2O)O[C@@H]8CO)O[C@@H]7CO)O[C@@H]6CO)O[C@@H]5CO)O[C@@H]4CO)O[C@@H]3CO [β-cyclodextrin], the saturation solubility [1] is reported as “about 1.8%”.
With heparin sodium the Blood coagulation time ([2]; 5% (w/v) α-cyclodextrin, 0.5 hr., before administration 14.3) was 17.2 s, the Blood coagulation time ([2]; 5% (w/v) α-cyclodextrin, 0.75 hr., before administration 14.3) was 18.4 s and the Blood coagulation time ([2]; 5% (w/v) α-cyclodextrin, 1 hr., before administration 14.3) was 19.7 s. It also gave a Blood coagulation time ([2]; 5% (w/v) α-cyclodextrin, 1.5 hr., before administration 14.3) of 18.9 s, a Blood coagulation time ([2]; 5% (w/v) α-cyclodextrin, 2 hr., before administration 14.3) of 19.4 s and a Blood coagulation time ([2]; no cyclodextrin, 0.5 hr., before administration 13.6) of 14.3 s. It also gave a Blood coagulation time ([2]; no cyclodextrin, 0.75 hr., before administration 13.6) of 13.7 s, a Blood coagulation time ([2]; no cyclodextrin, 1 hr., before administration 13.6) of 14.7 s and a Blood coagulation time ([2]; no cyclodextrin, 1.5 hr., before administration 13.6) of 15.3 s. It also gave a Blood coagulation time ([2]; no cyclodextrin, 2 hr., before administration 13.6) of 14.7 s.
Molecule CCNC(=O)[C@@H]1CCCN1C(=O)[C@H](CCCNC(=N)N)NC(=O)[C@H](CC(C)C)NC(=O)[C@@H](CC(C)C)NC(=O)[C@H](Cc1ccc(O)cc1)NC(=O)[C@H](CO)NC(=O)[C@H](Cc1c[nH]c2ccccc12)NC(=O)[C@H](Cc1c[nH]cn1)NC(=O)[C@@H]1CCC(=O)N1 [TAP-144] has a level at 0.5 h (in vivo) of 28.1 ng/mL, a level at 2 h (in vivo) of 39.2 ng/mL and a level at 4 h (in vivo) of 32.1 ng/mL. For the same molecule, the increase in bioavailability [3] was “about 3.5 times”, the “Concentration of TAP-144 in serum” value ([4]; female, SD, 100 ug/kg, 0.5 h) was 45.3 ng/mL and the “promotion of vaginal absorption” value [4] was “about 6 times”.
In the case of Cc1nnc(SCC2=C(C(=O)O)N3C(=O)[C@@H](NC(=O)Cn4cnnn4)[C@H]3SC2)s1 [sodium cefazolin], the Plasma level ([5]; 10% (w/w) α-cyclodextrin, 0.5 hr.) is reported as 3840 ng/mL, the Plasma level ([5]; 10% (w/w) α-cyclodextrin, 1 hr.) is reported as 5320 ng/mL and the Plasma level ([5]; 10% (w/w) α-cyclodextrin, 2 hr.) is reported as 7370 ng/mL. It also gave a Plasma level ([5]; 10% (w/w) α-cyclodextrin, 3 hr.) of 6260 ng/mL, a Plasma level ([5]; 10% (w/w) α-cyclodextrin, 4 hr.) of 5320 ng/mL and a Plasma level ([5]; no cyclodextrin, 0.5 hr.) of 1760 ng/mL. For the same molecule, the Plasma level ([5]; no cyclodextrin, 1 hr.) was 2210 ng/mL, the Plasma level ([5]; no cyclodextrin, 2 hr.) was 3000 ng/mL and the Plasma level ([5]; no cyclodextrin, 3 hr.) was 3490 ng/mL. It also gave a Plasma level ([5]; no cyclodextrin, 4 hr.) of 2540 ng/mL.
For O=c1[nH]cc(F)c(=O)[nH]1 [5-FU, 5-fluorouracil], the “AUC (0-4 hr.)” value ([6]; 5% (w/v) α-cyclodextrin) was 4.0, the Plasma level ([6]; 5% (w/v) α-cyclodextrin, 0.5 hr.) was 1370 ng/mL and the Plasma level ([6]; 5% (w/v) α-cyclodextrin, 1 hr.) was 1720 ng/mL. The Plasma level ([6]; 5% (w/v) α-cyclodextrin, 2 hr.) was 1050 ng/mL, the Plasma level ([6]; 5% (w/v) α-cyclodextrin, 4 hr.) was 490 ng/mL and the “AUC (0-4 hr.)” value ([6]; no cyclodextrin) was 1.1. For the same molecule, the Plasma level ([6]; no cyclodextrin, 0.5 hr.) was 970 ng/mL, the Plasma level ([6]; no cyclodextrin, 1 hr.) was 430 ng/mL and the Plasma level ([6]; no cyclodextrin, 2 hr.) was 130 ng/mL. It also gave a Plasma level ([6]; no cyclodextrin, 4 hr.) of 60 ng/mL.
